As usually defined, the pKi is the Ki on a negative log10 scale, so that one unit is a factor of ten. Low readings indicate a large Ki, high ones a small Ki.

Some targets named below: Carbonic anhydrase 9 (Homo sapiens, UniProt Q16790); Carbonic anhydrase 12 (Homo sapiens, UniProt O43570); Carbonic anhydrase 1 (Homo sapiens, UniProt P00915); Carbonic anhydrase 2 (Homo sapiens, UniProt P00918).

pKi: −log10 of the molar value. Some results are limits rather than exact numbers.

Sequence of Carbonic anhydrase 1 (P00915 whole entry): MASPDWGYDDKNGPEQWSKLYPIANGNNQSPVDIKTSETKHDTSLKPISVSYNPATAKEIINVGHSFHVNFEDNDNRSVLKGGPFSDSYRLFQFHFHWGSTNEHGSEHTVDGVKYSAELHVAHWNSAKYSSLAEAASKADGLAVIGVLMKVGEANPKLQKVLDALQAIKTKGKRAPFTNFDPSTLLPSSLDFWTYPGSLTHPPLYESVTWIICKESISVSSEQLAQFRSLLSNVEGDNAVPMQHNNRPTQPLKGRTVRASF
Sequence of Carbonic anhydrase 12 (O43570 whole entry): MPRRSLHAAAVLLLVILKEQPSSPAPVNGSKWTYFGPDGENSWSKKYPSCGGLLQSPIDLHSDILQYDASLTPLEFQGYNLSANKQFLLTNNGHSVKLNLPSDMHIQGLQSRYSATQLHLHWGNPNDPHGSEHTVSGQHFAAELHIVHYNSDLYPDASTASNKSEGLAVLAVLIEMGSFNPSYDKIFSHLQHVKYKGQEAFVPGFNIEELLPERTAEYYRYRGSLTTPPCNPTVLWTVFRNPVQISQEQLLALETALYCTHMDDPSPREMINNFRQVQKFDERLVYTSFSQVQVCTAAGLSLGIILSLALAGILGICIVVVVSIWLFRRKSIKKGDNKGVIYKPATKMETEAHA
Description for Carbonic anhydrase 12: Inhibition of human transmembrane carbonic anhydrase 12 by stopped-flow CO2 hydration assay
Description for Carbonic anhydrase 2: Inhibition of human cytosolic carbonic anhydrase 2 by stopped-flow CO2 hydration assay
Description for Carbonic anhydrase 9: Inhibition of human transmembrane carbonic anhydrase 9 by stopped-flow CO2 hydration assay

For the molecule `NS(=O)(=O)c1ccc(CN2C(=O)c3ccc([N+](=O)[O-])cc3C2=O)cc1`, the pKi at Carbonic anhydrase 9 is 5.05.

As for `NS(=O)(=O)c1ccc(N2C(=O)c3ccc([N+](=O)[O-])cc3C2=O)cc1`, at Carbonic anhydrase 9, the pKi was 5.06.

The molecule `NS(=O)(=O)c1ccc(CN2C(=O)c3cccc([N+](=O)[O-])c3C2=O)cc1` gave a pKi on Carbonic anhydrase 9 of 6.06.

Consider `NS(=O)(=O)c1cccc(N2C(=O)c3cccc([N+](=O)[O-])c3C2=O)c1`, for which the pKi at Carbonic anhydrase 9 is 5.08.

As for `NS(=O)(=O)c1ccccc1N1C(=O)c2cccc([N+](=O)[O-])c2C1=O`, the pKi is 5.11 on Carbonic anhydrase 9, below 5.00 on Carbonic anhydrase 12 and below 5.00 on Carbonic anhydrase 1.

Turning to `NS(=O)(=O)c1ccccc1N1C(=O)c2ccc([N+](=O)[O-])cc2C1=O`, the pKi at Carbonic anhydrase 2, on Carbonic anhydrase 9 and at Carbonic anhydrase 1 was below 5.00 each time.

`NS(=O)(=O)c1cccc(N2C(=O)c3ccc([N+](=O)[O-])cc3C2=O)c1`: the pKi at Carbonic anhydrase 9 is 5.00.

`NS(=O)(=O)c1ccc(CCN2C(=O)c3ccc([N+](=O)[O-])cc3C2=O)cc1` had a pKi at Carbonic anhydrase 9 below 5.00.
